According to US20230089867A1, “CYCLIC PENTAMER COMPOUNDS AS PROPROTEIN CONVERTASE SUBTILISIN/KEXIN TYPE 9 (PCSK9) INHIBITORS FOR THE TREATMENT OF METABOLIC DISORDER” (Novartis AG, priority 2018, published 2023):

Target: human PCSK9 (Homo sapiens, UniProt Q8NBP7)
Assay: PCSK9 ligand binding TR-FRET assay (interference with binding of human PCSK9 to human LDLR)
Settings: for Max % inhibition: PCSK9 FRET assay, efficacy (Amax), 100% = 1 uM unlabeled human PCSK9, 0% = DMSO; for IC50: TR-FRET, human PCSK9 Alexa Fluor 647 / human LDLR extracellular domain-Europium Kryptate, read-out: PCSK9 FRET Assay IC50
Outline: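 Threefold compound dilutions were pre-incubated 30 min with PCSK9, after which 4 nM Europium Kryptate-tagged human LDLR ectodomain was added for a further 2 h.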

Chain of human PCSK9 (Q8NBP7 153-692): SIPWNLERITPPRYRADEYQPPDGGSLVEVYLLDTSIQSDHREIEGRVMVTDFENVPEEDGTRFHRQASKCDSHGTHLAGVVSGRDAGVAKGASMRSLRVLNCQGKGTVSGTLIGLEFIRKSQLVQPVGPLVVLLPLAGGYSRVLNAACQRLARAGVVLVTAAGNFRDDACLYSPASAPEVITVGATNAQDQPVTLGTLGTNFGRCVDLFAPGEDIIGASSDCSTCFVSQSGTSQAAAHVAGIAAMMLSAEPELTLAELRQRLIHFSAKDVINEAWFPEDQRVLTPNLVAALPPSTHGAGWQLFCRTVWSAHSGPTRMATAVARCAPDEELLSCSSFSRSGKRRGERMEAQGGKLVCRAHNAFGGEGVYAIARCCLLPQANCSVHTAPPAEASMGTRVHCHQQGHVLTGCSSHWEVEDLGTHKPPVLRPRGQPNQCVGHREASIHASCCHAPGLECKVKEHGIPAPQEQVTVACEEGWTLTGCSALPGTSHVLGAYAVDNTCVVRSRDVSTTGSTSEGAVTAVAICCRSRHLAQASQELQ
Chain of human PCSK9 (Q8NBP7 31-152 partner limits assumed): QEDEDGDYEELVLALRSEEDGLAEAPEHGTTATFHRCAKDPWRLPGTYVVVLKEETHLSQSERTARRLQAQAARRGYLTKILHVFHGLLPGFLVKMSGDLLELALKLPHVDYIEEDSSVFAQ

Row | Max % inhibition [%] | IC50 [nM] | SMILES
1 | 96.63 | 0.6 | COC[C@@H]1NC(=O)[C@H](C)N(Cc2ccc(Cl)cc2Oc2ccc(-c3cnc(CN4CCCC4)n3C)cc2)C(=O)C[C@@H](Cc2cccc(F)c2F)C(=O)N(C)[C@@H](C)CNC(=O)C[C@H](Cc2ccc(Cl)cc2)N(C)C1=O [Compound 67, (2S,5S,8S,13S,16R)-1-(4-chloro-2-(4-(1-methyl-2-(pyrrolidin-1-ylmethyl)-1H-imidazol-5-yl)phenoxy)benzyl)-8-(4-chlorobenzyl)-16-(2,3-difluorobenzyl)-5-(methoxymethyl)-2,7,13,14-tetramethyl-1,4,7,11,14-pentaazacyclooctadecane-3,6,10,15,18-pentaone]
2 | 87.74 | 497 | COC[C@@H]1NC(=O)[C@H](CCO)N(Cc2ccc(Cl)cc2Oc2ccc(-c3cnc(CN(C)C)n3C)cc2)C(=O)C[C@@H](Cc2ccccc2)C(=O)N(C)[C@@H](C)CNC(=O)C[C@H](Cc2ccc(Cl)cc2)N(C)C1=O [Compound 87, (2S,5S,8S,13S,16R)-16-benzyl-1-(4-chloro-2-(4-(2-((dimethylamino)methyl)-1-methyl-1H-imidazol-5-yl)phenoxy)benzyl)-8-(4-chlorobenzyl)-2-(2-hydroxyethyl)-5-(methoxymethyl)-7,13,14-trimethyl-1,4,7,11,14-pentaazacyclooctadecane-3,6,10,15,18-pentaone]
3 | 93.78 | 65.4 | COC[C@H]1C(=O)N[C@@H](CO)C(=O)N(C)[C@@H](Cc2ccc(Cl)cc2)CC(=O)NC[C@H](C)N(C)C(=O)CCC(=O)N1Cc1ccccc1Oc1ccc(-c2cnc(CN(C)C)n2C)cc1 [Compound 200, (2S,5S,8S,13S)-8-(4-chlorobenzyl)-1-(2-(4-(2-((dimethylamino)methyl)-1-methyl-1H-imidazol-5-yl)phenoxy)benzyl)-5-(hydroxymethyl)-2-(methoxymethyl)-7,13,14-trimethyl-1,4,7,11,14-pentaazacyclooctadecane-3,6,10,15,18-pentaone]
4 | 54.00 | 3.5 | COC[C@@H]1NC(=O)[C@H](C)N(Cc2ccc(Cl)cc2Oc2ccc(-c3cnc4c(CN5CCCC5)cccn34)cc2)C(=O)C[C@@H](Cc2ccccc2)C(=O)N(C)[C@@H](C)CNC(=O)C[C@H](Cc2ccc(Cl)cc2)N(C)C1=O [Compound 302]
5 | 77.84 | 30.5 | CCOc1ncc(-c2ccc(Oc3cc(Cl)ccc3CN3C(=O)C[C@@H](Cc4ccccc4)C(=O)N(C)[C@@H](C)CNC(=O)C[C@H](Cc4ccc(Cl)cc4)N(C)C(=O)[C@H](COC)NC(=O)[C@@H]3C)cc2)n1C [Compound 68, (2S,5S,8S,13S,16R)-16-benzyl-1-(4-chloro-2-(4-(2-ethoxy-1-methyl-1H-imidazol-5-yl)phenoxy)benzyl)-8-(4-chlorobenzyl)-5-(methoxymethyl)-2,7,13,14-tetramethyl-1,4,7,11,14-pentaazacyclooctadecane-3,6,10,15,18-pentaone]
6 | 80.18 | 3.6 | C[C@@H]1CC(=O)N(Cc2ccc(Cl)cc2Oc2ccc(-c3cnc(CN(C)C)n3C)cc2)[C@@H](C)C(=O)N[C@@H](CO)C(=O)N(C)[C@@H](Cc2ccc(Cl)cc2)CC(=O)N[C@H]2CCCC[C@@H]2N(C)C1=O [Compound 164, (4S,7S,10S,14R,16aS,20aS)-11-(4-chloro-2-(4-(2-((dimethylamino)methyl)-1-methyl-1H-imidazol-5-yl)phenoxy)benzyl)-4-(4-chlorobenzyl)-7-(hydroxymethyl)-5,10,14,16-tetramethylhexadecahydrobenzo[l][1,4,7,11,14]pentaazacyclooctadecine-2,6,9,12,15(3H)-pentaone]
